Assay results reported in ChEMBL document CHEMBL1201862, “PubChem BioAssay data set” (2004).
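Step 1: Grow cells in 96-well plates. Step 2: Expose to compound for 48 hours at 5 concentrations. Step 3: Interpolate endpoints linearly; if unreached, use highest concentration. Here, GI50 denotes the concentration required for 50% inhibition of growth.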 Active and inactive are the calls of the source. No stated cut-off is given here; in the data, active = GI50 up to about 1.1 µM and inactive = higher.

Legend:
Test in all cases: NCI-60 cell line screen, 48 h
[1] = system: SK-MEL-28
[2] = system: SK-MEL-2
[3] = system: Malme-3M
[4] = system: SK-MEL-5
[5] = system: SN12C
[6] = system: NCI-H460
[7] = system: SF-295
[8] = system: HOP-62
[9] = system: HOP-92
[10] = system: IGROV-1
[11] = system: M19-MEL
[12] = system: OVCAR-3
[13] = system: HCT-116
[14] = system: 786-0
[15] = system: DMS-273
[16] = system: CCRF-CEM
[17] = system: NCI/ADR-RES

Measured: GI50

COc1cccc(/C=C2\CCC(C)(CN(C)C)C2=O)c1 (stereo unspecified)
inactive: [1] > 100 µM | [2] > 100 µM | [3] > 100 µM | [4] 69 µM | [5] > 100 µM | [6] > 100 µM | [7] > 100 µM | [8] > 100 µM | [9] > 100 µM | [10] > 100 µM | [11] 98.2 µM | [12] > 100 µM | [13] 58.2 µM | [14] > 100 µM | [15] 70.5 µM

CCOc1ccccc1NC(=O)CC1Sc2ccccc2NC1=O (stereo unspecified)
inactive: [1] > 100 µM | [2] 45.8 µM | [3] 52.7 µM | [4] 26.1 µM | [5] > 100 µM | [6] 44.1 µM | [7] 43.6 µM | [8] 73.3 µM | [9] 18.2 µM | [10] 45.5 µM | [11] 64.4 µM | [16] 31.8 µM | [12] 37.5 µM | [13] > 100 µM | [14] > 100 µM | [15] 48.6 µM

Cc1cc(Cl)ccc1NC(=O)CC1SC(Nc2ccccc2Cl)=NC1=O (stereo unspecified)
inactive: [1] 66.2 µM | [2] 48.4 µM | [3] 91.8 µM | [4] 36.6 µM | [5] 33.8 µM | [6] 51.3 µM | [7] 52.6 µM | [8] > 100 µM | [9] 48.9 µM | [10] 49.5 µM | [11] 38.9 µM | [16] 29.6 µM | [12] 28.3 µM | [13] 30.3 µM | [14] 53.8 µM | [15] 26.4 µM

CCC1=C(C)/C(=C/c2[nH]c(CBr)c(CC)c2C)N=C1CBr
inactive: [1] 15.6 µM | [2] 22.2 µM | [3] 20.7 µM | [4] 16.8 µM | [5] 10 µM | [6] 19 µM | [7] 20.9 µM | [8] 15 µM | [9] 7.46 µM | [10] 18.5 µM | [11] 13.7 µM | [16] 2.51 µM | [12] 16.1 µM | [14] 17 µM | [15] > 100 µM

O=C(CCN(C(=O)O)S(=O)(=O)c1ccc(NC(=O)c2ccccc2)cc1)Nc1ccccc1
inactive: [1] > 100 µM | [2] > 100 µM | [3] > 100 µM | [4] > 100 µM | [5] > 100 µM | [6] > 61.9 µM | [7] > 100 µM | [8] > 100 µM | [9] > 100 µM | [10] > 100 µM | [11] > 76.9 µM | [16] > 61.7 µM | [12] > 100 µM | [13] > 56.6 µM | [14] > 100 µM | [15] > 65.3 µM

CC1=NN2C(c3ccc([N+](=O)[O-])cc3)=CSC2=NC(C)(C)C1
inactive: [1] > 100 µM | [2] > 100 µM | [3] > 100 µM | [4] > 100 µM | [5] > 100 µM | [6] > 100 µM | [7] > 100 µM | [8] > 100 µM | [9] 79.6 µM | [10] > 100 µM | [11] > 100 µM | [16] > 100 µM | [12] > 100 µM | [13] > 100 µM | [14] > 100 µM | [15] > 100 µM

CN(/N=N/c1[nH]cnc1C(N)=O)C1CCCCC1
inactive: [1] > 100 µM | [2] 27.1 µM | [3] 74.6 µM | [4] > 100 µM | [5] > 100 µM | [6] > 100 µM | [7] 86.7 µM | [8] > 100 µM | [9] 55.1 µM | [10] > 100 µM | [11] > 100 µM | [16] 55.2 µM | [12] 75.7 µM | [13] 50.4 µM | [15] 41.2 µM

CC1=C(C(=O)Nc2ccccc2)C(c2ccccc2Cl)C(C(=O)Nc2ccccc2)=C(C)N1
inactive: [1] 27.1 µM | [2] 18 µM | [3] 20 µM | [4] 15.2 µM | [5] 18.9 µM | [7] 25.4 µM | [8] 20.1 µM | [9] 21.6 µM | [10] 27.9 µM | [11] 19.8 µM | [16] 32 µM | [12] 17.6 µM | [13] 22.6 µM | [14] 19.6 µM | [15] 20.8 µM

Cc1nc2c(=O)n(C)c(=O)nc-2n(-c2ccc(Cl)cc2)c1C
inactive: [1] > 100 µM | [2] > 100 µM | [3] > 100 µM | [4] 79.1 µM | [5] > 100 µM | [6] > 100 µM | [7] > 100 µM | [8] > 100 µM | [9] > 100 µM | [10] > 100 µM | [11] > 100 µM | [16] 60.1 µM | [12] > 100 µM | [14] > 100 µM | [15] > 100 µM

O=C1C(=O)N(c2ccc(Cl)c(Cl)c2)C(=O)C(=O)C1c1nc2ccccc2s1
inactive: [1] > 100 µM | [2] > 100 µM | [3] > 100 µM | [4] > 100 µM | [5] > 100 µM | [7] > 100 µM | [8] > 100 µM | [9] 9.55 µM | [10] > 100 µM | [11] > 100 µM | [16] 38.2 µM | [12] > 100 µM | [13] > 100 µM | [14] > 100 µM | [15] > 100 µM

O=C(Nc1ccccc1-c1nn(CN2CCNCC2)c(=S)n(CN2CCNCC2)c1=O)C(F)(F)F
inactive: [1] 18.9 µM | [2] 19.4 µM | [3] 17.9 µM | [4] 17.3 µM | [5] 19.4 µM | [6] 20.5 µM | [7] 29 µM | [8] 19.6 µM | [9] 22 µM | [10] 22.3 µM | [11] 17.9 µM | [16] 17.1 µM | [12] 20.7 µM | [13] 17.8 µM | [14] 18.7 µM | [15] 18.1 µM

O=C(NC/C=C/CO)c1ccccc1
inactive: [1] > 100 µM | [2] > 100 µM | [3] > 100 µM | [4] > 100 µM | [5] > 100 µM | [17] > 100 µM | [6] > 100 µM | [7] > 100 µM | [8] > 100 µM | [10] > 100 µM | [11] > 100 µM | [16] > 100 µM | [12] > 100 µM | [13] > 100 µM | [15] > 100 µM

COc1cccc(-n2c3nc(=O)n(C)c(=O)c-3nc3ccccc32)c1
inactive: [1] 22.1 µM | [2] 19.6 µM | [3] 14.3 µM | [4] 3.24 µM | [5] 13.7 µM | [6] 5.46 µM | [7] 13.2 µM | [8] 37.9 µM | [9] 26 µM | [10] 18.7 µM | [11] 2.43 µM | [16] 19 µM | [12] 2.69 µM | [13] 23.1 µM | [14] 24.3 µM | [15] 6.95 µM
